SMILES strings stand for the structures.

What all share (format): in vivo, C57BL/6 mice
The subject of one test is IL-1β. In words: ELISA of IL-1β in pelvis urine in UUO model. The protocol: (§1) Male 8-week-old C57BL/6 mice were purchased form National Laboratory Animal Breeding and Research Center (Taipei, Taiwan) and maintained at the animal center of the National Defense Medical Center (Taipei, Taiwan). All animal experiments were performed with the approval of the Institutional Animal Care and Use Committee of The National Defense Medical Center, Taiwan, and were consistent with the National Institutes of Health Guide for the Care and Use of Laboratory Animals.
(§2) Mice were first anesthetized with sodium pentobarbital (50 mg/kg, i.p.). After a left flank incision was taken, the left ureter was exposed, ligated with 6-0 silk sutures at two points, and cut between the two ligatures. Lastly, the peritoneal membrane and skin were sutured. Sham surgery was performed as control by following all steps of UUO-procedure except ligation and cut of ureter. (Xiao et al. Adenosine A2A receptor: a target for regulating renal interstitial fibrosis in obstructive nephropathy, PLoS One. 2013 Apr. 9; 8 (4):e60173). […]
(§3) Urine samples are collected from calyx and pelvis by 29G insulin syringe. […] MCP-1, TNF-α, and IL-1β are then detected by ELISA following instruction manual (eBioscience and R&D). […]
(ELISA stands for enzyme-linked immunosorbent assay.)

Test [1] has as its system F4/80+ monocytes/macrophages. In words: Immunohistochemical staining of renal section for F4/80 (macrophage infiltration) in UUO model. The settings on record: UUO mice; 30 mg/kg daily i.p. The protocol: as §1
(§4) Mice were first anesthetized with sodium pentobarbital (50 mg/kg, i.p.). After a left flank incision was taken, the left ureter was exposed, ligated with 6-0 silk sutures at two points, and cut between the two ligatures. Lastly, the peritoneal membrane and skin were sutured. Sham surgery was performed as control by following all steps of UUO-procedure except ligation and cut of ureter. (Xiao et al. Adenosine A2A receptor: a target for regulating renal interstitial fibrosis in obstructive nephropathy, PLoS One. 2013 Apr. 9; 8 (4):e60173).
(§5) Briefly, all mice received preoperative analgesia (subcutaneous injection of […] buprenorphin (Temgesic, Shering-Plough)) and the right ureter was subsequently ligated with 6.0 silk through a small abdominal incision under 2.0% isoflurane-induced anesthesia. […]

The subject of a further test is splenocytes. Kind of test: B cells and T cells activation in splenocytes by flow cytometry in UUO model. To be noted: within three groups (sham, disease control, LCHK168). Here is the method:
as §1, §4, §5

The next test concerns TNF-α. Kind of test: ELISA of TNF-α in pelvis urine in UUO model. Here is the method: as §1, §2, §3
The subject of the next test is collagen IV. In words: Immunohistochemical staining of renal section for collagen IV in UUO model. The settings on record: UUO mice; 30 mg/kg daily i.p. Here is the method: as §1, §4, §5
In a further test the test system is CD3+ T cells. In words: Immunohistochemical staining of renal section for CD3+ (T cell infiltration) in UUO model. The settings on record: UUO mice; 30 mg/kg daily i.p. Here is the method:
as §1, §4, §5

For the next test, the system named is UUO kidney. Kind of test: Renal histopathology evaluation by H&E staining in UUO model. The settings on record: 30 mg/kg daily i.p. Here is the method: as §1, §4
Briefly, all mice received preoperative analgesia (subcutaneous injection of […] buprenorphin (Temgesic, Shering-Plough)) and the right ureter was subsequently ligated with 6.0 silk through a small abdominal incision under 2.0% isoflurane-induced anesthesia. The abdomen was closed in two layers and mice were allowed to recover from surgery for 12 hours at 28° C. in a ventilated stove. Mice were sacrificed 7 or 14 days after surgery (Pulskens, et al. Nlrp3 prevents early renal interstitial edema and vascular permeability in unilateral ureteral obstruction, PLoS One. 2014 Jan. 15; 9 (1):e85775).
Ginsenoside M1, 20-O-β-D-glucopyranosyl-20(S)-protopanaxadiol (named LCHK168 below), was prepared by methods known in the art, such as those described in Taiwan Patent Application No. 094116005 (I280982) and U.S. Pat. No. 7,932,057. LCHK168 was dissolved in 3% cremophore (Sigma-Aldrich). Starting from one day before UUO operation, mice were given a daily dose of LCHK168 (30 mg/kg) by intraperitoneal injection till sacrifice.
Paraffin-embedded kidney tissues were sectioned and stained with Masson's trichrome and hematoxylin and eosin (H&E) using standard protocols. For histopathology, the tissues were fixed in 10% buffered formalin and embedded in paraffin, and then sections (3 μm) were prepared and stained with hematoxylin and eosin (H&E).
Sections all are examed after mounting. The methods of semi-quantitative analysis are according to the degree of inflammation and fibrosis on renal tubulointerstitial whereas and randomly selected 20 fields randomly for scoring. […]

Test [2] has as its system proliferating cell nuclear antigen (PCNA). Kind of test: Immunohistochemical staining of renal section for PCNA in UUO model. The settings on record: UUO mice; 30 mg/kg daily i.p. Here is the method:
as §1, §4, §5

Test [3] deals with fibrosis tissue in the UUO interstitial area. Kind of test: Masson's trichrome staining of renal section in UUO model. To be noted: UUO mice; 30 mg/kg daily i.p. The protocol: as §1, §4, §5
In the next test the test system is NF-κB. In words: Immunohistochemical staining of renal section for NF-κB in UUO model. The settings on record: UUO mice; 30 mg/kg daily i.p. Here is the method:
as §1, §4, §5

The test system of test [4] is apoptotic cells in UUO renal interstitial area. In words: TUNEL staining of renal section for apoptotic cells in UUO model. The settings on record: UUO mice; 30 mg/kg daily i.p. The protocol:
as §1, §4, §5

For the next test, the system named is α-SMA. Kind of test: Immunohistochemical staining of renal section for α-SMA in UUO model. To be noted: UUO mice; 30 mg/kg daily i.p. The protocol: as §1, §4, §5
For a further test, the system named is MCP-1. Kind of test: ELISA of MCP-1 in pelvis urine in UUO model. The protocol:
as §1, §2, §3

The subject of a further test is bone marrow cells. In words: Stem cells and hematopoietic stem cell activation in bone marrow cells by flow cytometry in UUO model. The settings on record: within three groups (sham, disease control, LCHK168). The protocol: as §1, §4, §5
For orientation: A flow cytometer gives signals particle by particle.

The next test has as its system collagen III. Kind of test: Immunohistochemical staining of renal section for collagen III in UUO model. The settings on record: UUO mice; 30 mg/kg daily i.p. The protocol: as §1, §4, §5
Where [5] appears, read: day 7, compare to normal control group.
[6] abbreviates: 7 days of UUO, vs disease control mice.

Take `CC(C)=CCC[C@](C)(O[C@@H]1O[C@H](CO)[C@@H](O)[C@H](O)[C@H]1O)[C@H]1CC[C@]2(C)[C@@H]1[C@H](O)C[C@@H]1[C@@]3(C)CC[C@H](O)C(C)(C)[C@@H]3CC[C@]12C` [LCHK168, 20-O-β-D-glucopyranosyl-20(S)-protopanaxadiol]: in the test with IL-1β (setting [5]), the “IL-1β in renal pelvis urine” value is on record as “higher”. The “IL-1β in renal pelvis urine” value in the test on IL-1β (day 14, compare to UUO group) is recorded as “significant decreased”. In test [1], the “expression of F4/80 (macrophage) in renal section” value is listed as “decreased”. In the test on splenocytes, the “percentage of CD3+CD69+ cells in splenocytes” value is “no significant change” and the “percentage of CD19+CD69+ cells in splenocytes” value is “no significant change”. Besides, the “TNF-α in renal pelvis urine” value in the test on TNF-α (setting [5]) is recorded as “higher”. Besides, the “TNF-α in renal pelvis urine” value in the test with TNF-α (day 14, compare to UUO group) is “significant decreased”. The “collagen IV expression in UUO interstitial area” value in the test on collagen IV is “decreased”. In addition, the “expression of CD3+ (T cells) in renal section” value in the test on CD3+ T cells is recorded as “decreased”. Besides, in the test with UUO kidney (setting [6]), the “mononuclear leukocyte infiltration in the interstitial area (H&E)” value is given as “inhibited” and the “tubular dilation in the interstitial area (H&E)” value is given as “inhibited”. In addition, in the test on UUO kidney (14 days of UUO), the “fibrosis (H&E)” value is given as “significantly inhibited” and the “tubular atrophy (H&E)” value is given as “significantly inhibited”. For the same compound, the “PCNA expression in renal section” value in [2] is “decrease”. Further, the “fibrosis tissue in the UUO interstitial area (Masson's trichrom staining)” value in test [3] is “decreased”. Further, the “NF-κB expression in renal section” value in the test on NF-κB is “inhibited”. In addition, in test [4], the “apoptotic cells (TUNNEL staining) in UUO renal interstitial area” value is “decrease”. Besides, the “α-SMA expression in UUO interstitial area” value in the test with α-SMA is on record as “decreased”. The “MCP-1 in renal pelvis urine” value in the test on MCP-1 (setting [5]) is reported as “higher”. Further, the “MCP-1 in renal pelvis urine” value with MCP-1 (day 14, compare to UUO group) is on record as “significant decreased”. In the test with bone marrow cells, the “percentage of CD34+ (stem cell) cells in bone marrow cells” value was “no significant change” and the “percentage of Stem-cell antigen-1-positive cells (hematopoietic stem cell) in bone marrow cells” value is on record as “no significant change”. Also, in the test on collagen III, the “collagen III expression in UUO interstitial area” value is recorded as “decreased”.

These data come from patent US10357507B2, “Use of ginsenoside M1 for inhibiting renal fibrosis” (priority 2014, dated 2019).
